pKd: −log10 of the molar value. Where a SMILES comes first, the peptide text is derived from it. Bridges are numbered along the chain shown (N, C = ends).
Molecular target: T1, p32 protein (Homo sapiens, UniProt Q07021)
T1 construct: 6xHis; host or cells: Rosetta-gami-2 cells (Novagen); an E. coli strain by own knowledge
T1 sequence (Q07021 74-282): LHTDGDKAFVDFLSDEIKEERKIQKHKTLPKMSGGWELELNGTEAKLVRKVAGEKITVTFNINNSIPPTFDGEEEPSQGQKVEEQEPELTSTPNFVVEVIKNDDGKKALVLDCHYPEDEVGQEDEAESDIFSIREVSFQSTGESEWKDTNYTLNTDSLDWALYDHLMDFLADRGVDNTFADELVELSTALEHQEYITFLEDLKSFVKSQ
Assay: Fluorescence polarization binding of FAM-labeled peptides to p32 (KD)
Conditions: affinity of binding to p32
Procedure: FIGS. 2A-2D are graphs showing FP- and phage binding-based validation of p32 binding peptides and hit compounds. […] Measurements were performed with PheraStar FS plate reader (BMG Labtech, Ortenberg, Germany) on 384-well plate. (B) Affinity of the 7 hit compounds in dose-dependent (8.25 μM to 100 μM) inhibition of FAM-TT1 binding to p32 in FP assay. (C) Assessment of hit compound binding to a non-target secondary protein, NRP-1, to determine the specificity of the hit compounds in FP assay. A known NRP-1 binding peptide, RPARPAR (SEQ ID NO:18), was used as a control. (D) Effect of the hit compounds on the TT1 phage binding to p32 protein. TT1 phage binding to p32 in the presence of 100 μM hit compounds was determined in ELISA-type of binding assay. Each data point presents average±S.D., n=4.
FIG. 6 is a graph showing the effect of buffer solution on interaction of TT1 and p32. […] The binding was measured by fluorescence polarization (FP) and observed as increased FP value. Binding constants (KD) were calculated by fitting the binding curves into Michaelis-Menten kinetics. […]
Fluorescence polarization (FP)-based assay was used for solution-based screening of compound libraries for p32 binding compounds. […] The protein was purified by IMAC using HIS-select resin (Sigma) with an imidizole gradient from 20-300 mM and eluted fractions were analyzed on analytical SDS-PAGE. […]

C[C@@H]1NC(=O)CNC(=O)[C@H](CCCNC(=N)N)NC(=O)[C@H](CCCCN)NC(=O)[C@@H](N)CSSC[C@@H](C(=O)O)NC(=O)[C@H]([C@@H](C)O)NC(=O)[C@H](CO)NC(=O)[C@H](CCCNC(=N)N)NC1=O [TT1, CKRGARSTC] (H-CKRGARSTC-OH; disulfide 1-9)
pKd: 5.64

— US20200268832A1, “COMPOSITIONS FOR DELIVERY TO AND TREATMENT OF ATHEROSCLEROTIC PLAQUES” (Sanford Burnham Prebys Medical Discovery Institute, priority 2015, published 2020)
